According to the NIST ThermoML archive (doi:10.1021/acs.jced.8b00979):

Assay: xn = mol fraction of the nth substance listed
Details: 100 kPa, Liquid; for mass density: Vibrating tube method; for viscosity: Capillary tube (Ostwald / Ubbelohde) method

CCC(C)CO (stereo not given) [2-methyl-1-butanol] + CCCCCO
Details	mass density, 308.15 K [kg/m3]	mass density, 313.15 K [kg/m3]	mass density, 318.15 K [kg/m3]	mass density, 323.15 K [kg/m3]	mass density, 328.15 K [kg/m3]	viscosity, 313.15 K [mPa·s]	viscosity, 318.15 K [mPa·s]	viscosity, 323.15 K [mPa·s]	viscosity, 328.15 K [mPa·s]
x2 = 0	808.29	804.41	800.47	796.47	792.41	2.783	2.379	2.06	1.787
x2 = 0.1	807.82	803.95	800.02	796.04	792	2.717	2.329	2.016	1.753
x2 = 0.2	807.36	803.51	799.6	795.63	791.6	2.657	2.281	1.98	1.725
x2 = 0.3	806.92	803.07	799.18	795.22	791.22	2.59	2.232	1.942	1.697
x2 = 0.399	806.47	802.64	798.76	794.82	790.84	2.528	2.187	1.908	1.669
x2 = 0.5	806.03	802.21	798.34	794.42	790.46	2.468	2.141	1.877	1.645
x2 = 0.6	805.58	801.78	797.93	794.02	790.08	2.419	2.103	1.85	1.624
x2 = 0.699	805.15	801.35	797.52	793.63	789.7	2.365	2.07	1.823	1.609
x2 = 0.799	804.71	800.93	797.11	793.24	789.33	2.327	2.041	1.801	1.598
x2 = 0.899	804.28	800.51	796.7	792.85	788.96	2.323	2.028	1.791	1.594
